This is an account of results in patent publication US6465655B1, “Antibody to and assay for peptide linked-pyridinoline as indicator of bone resorption level” (Serex, Inc., priority 1997, dated 2002).

For this experiment, the system named is Serex 51A93. The experiment can be described thus: ELISA plate inhibition studies of Serex 51A93 by calibrators (Osteomark BCE, Metra free pyridinoline). It is filed as binding. The procedure: The immunoreactivities of 51A93 and 1H11 with the calibrators and ELISA plates in the Osteomark kit and Pyrilinks Metra kit were compared. Two studies were carried out using ELISA plate assays.
In the first study, BCE calibrators from the Osteomark Kit and free pyridinoline (Pyd) from Metra were tested at different concentrations to see if either of them inhibits 51A93. Abbreviations are BCE, bone collagen equivalents; %Bo, percent bound at 0 concentration of analyte (as analyte in sample binds to antibody, the percent Bo decreases).

The structures appear in SMILES notation.

As for `N[C@@H](CC[C@@H](O)C[n+]1cc(O)c(C[C@H](N)C(=O)O)c(CC[C@H](N)C(=O)O)c1)C(=O)[O-]` [Pyd, pyridinoline], the “% B0” value is, setting by setting: (Pyd 0.001 mg/ml) 87%; (Pyd 0.01 mg/ml) 85%; (Pyd 0.1 mg/ml) 89%; (Pyd 1 mg/ml) 83%. For the same compound, the “A 450” value by setting is: (Pyd 0.001 mg/ml) 1,302; (Pyd 0.01 mg/ml) 1,275; (Pyd 0.1 mg/ml) 1,327; (Pyd 1 mg/ml) 1,249. The “inhibition of Mab 51A93 by calibrator” value (even at high levels) is reported as “slightly inhibited”.
